Values quoted from earlier work in patent publication US20230111712A1, “STABLE REACTIVE COMPOSITIONS FOR BIOCONJUGATION, PROBES, AND PROTEIN LABELING” (ARIZONA BOARD OF REGENTS ON BEHALF OF THE UNIVERSITY OF …, priority 2020, published 2023).

Conditions: reported value

For CCCN [propyl ammonium, propyl amine], the pKa is listed as 10.5.
